≈ marks a conversion by molar mass, not a printed value. Where “and” joins values, the source holds several entries; their conditions need not be identical. Equal entries are not always repeated. Where two headings read alike, the source gives them in different places. Peptide text beside a SMILES is read from it.
Experiments:
[1] = test system: Enterococcus faecalis ATCC 29212 (VSE; QC); conditions: E. faecalis ATCC 29212; established CLSI QC range; cited from earlier work
[2] = test system: Staphylococcus aureus ATCC 29213 (MSSA; QC); conditions: S. aureus ATCC 29213; established CLSI QC range; cited from earlier work
[3] = test system: Klebsiella pneumoniae isolates (n = 101); conditions: Klebsiella pneumoniae (n = 101); CLSI breakpoints, colistin EUCAST
Experimental: (§1) Comparator antibiotics were supplied by Micromyx, and stock solutions were prepared on the first day of testing using solvents recommended by CLSI (1). Stock solutions of all compounds were made at 40× the final testing concentration and stored at −80° C. prior to testing. Information regarding compound source, catalog and lot number, testing concentrations and drug diluent for the comparators and test agent are detailed below in Table 3.
(§2) The test organisms evaluated in this study consisted of clinical isolates from the Micromyx Repository and reference isolates from the American Type Culture Collection (ATCC; Manassas, VA). The clinical isolates were obtained from USA hospitals. Upon initial receipt at Micromyx, the organisms were sub-cultured onto an appropriate agar medium. Following incubation, colonies were harvested from these plates and cell suspensions prepared and frozen at −80° C. with a cryoprotectant. Prior to testing, the isolates were streaked from frozen vials onto Trypticase Soy Agar with 5% sheep blood (Becton Dickenson [BD]; Sparks, MD; Lot Nos. 7173618, 7166759, 7208688, 72144895, 7228505 and Remel Lenexa, KS Lot No. 212574). Plates were incubated at 35° C. overnight.
(§3) Mueller Hinton II broth (MHB II; BD; Lot Nos. 6258541 and 7143896) was used for MIC testing of aerobic organisms.
(§4) MIC values were determined using a broth microdilution procedure described by CLSI (1, 3). Automated liquid handlers (Multidrop 384, Labsystems, Helsinki, Finland; Biomek 2000 and Biomek FX, Beckman Coulter, Fullerton CA) were used to conduct serial dilutions and liquid transfers.
(§5) To prepare the drug mother plates, which would provide the serial drug dilutions for the replicate daughter plates, the wells of columns 2-12 of standard 96-well microdilution plates (Costar 3795) were filled with 150 μl of the designated diluent for each row of drug. The test articles and comparator compounds (300 μl at 40× the highest concentration to be tested) were dispensed into the appropriate wells in column 1. The Biomek 2000 was then used to make 2-fold serial dilutions in the mother plates from column 1 through column 11. The wells of Column 12 contained no drug and served as the organism growth control wells for the assay.
(§6) The daughter plates were loaded with 185 μL per well of MHB II using the Multidrop 384. The daughter plates were completed on the Biomek FX instrument which transferred 5 μL of drug solution from each well of a mother plate to the corresponding well of each daughter plate in a single step. A standardized inoculum of each test organism was prepared per CLSI methods (1). The inoculum for each organism was dispensed into sterile reservoirs divided by length (Beckman Coulter), and the Biomek 2000 was used to inoculate the plates. Daughter plates were placed on the Biomek 2000 work surface in reverse orientation so that inoculation took place from low to high drug concentration.
(§7) Plates were stacked 3-4 high, covered with a lid on the top plate, placed in plastic bags, and incubated at 35° C. for 16 to 20 hrs. Following incubation, the microplates were removed from the incubator and viewed from the bottom using a plate viewer. […] The MIC was read and recorded as the lowest concentration of drug that inhibited visible growth of the organism.
(§8) Clinical breakpoints to determine percent resistance within a given organism group were obtained from CLSI (3), with the exception of colistin for K. pneumoniae, Enterobacter spp., and E. coli, which are only available from EUCAST.

[4] = test system: Pseudomonas aeruginosa isolates (n = 109); conditions: Pseudomonas aeruginosa (n = 109), CLSI breakpoints
Experimental: as §1, §2, §3, §4, §5, §6, §7, §8

[5] = test system: Escherichia coli isolates (n = 101); conditions: Escherichia coli (n = 101); CLSI breakpoints, colistin EUCAST
Experimental: as §1, §2, §3, §4, §5, §6, §7, §8

[6] = test system: Acinetobacter spp. isolates (n = 104); conditions: Acinetobacter spp. (n = 104); CLSI breakpoints
Experimental: as §1, §2, §3, §4, §5, §6, §7, §8

[7] = test system: Streptococcus pneumoniae ATCC 49619 (QC); conditions: S. pneumoniae ATCC 49619; established CLSI QC range; cited from earlier work
[8] = test system: Enterobacter spp. isolates (Enterobacter aerogenes and E. cloacae, n = 102); assay: organism not typed
Experimental: as §1, §2, §3, §4, §5, §6, §7, §8

[9] = test system: Escherichia coli ATCC 25922 (QC); conditions: E. coli ATCC 25922; established CLSI QC range; cited from earlier work
[10] = test system: Pseudomonas aeruginosa ATCC 27853 (non-MDR; QC); conditions: P. aeruginosa ATCC 27853; established CLSI QC range; cited from earlier work
[11] = 1.0 mg/kg, 30 min IV infusion, individual monkeys
Experimental: Animals will be obtained from the Test Facility's colony of adult male cynomolgus monkeys (Macaca fascicularis) of Chinese origin. Animals will be weighed prior to dosing.
Animals will be fasted a minimum of 2 hours prior to procedures requiring the administration of ketamine anesthesia. The diet will also be supplemented with other nutrients by feeding items such as raisins or fresh fruits that are presented to the animal as part of an environmental enrichment program. Offering items known to cause diarrhea will be avoided.
Intravenous administration will be via 30 minute infusion into a temporary percutaneous catheter placed into a saphenous vein. […]
The peptide will be purified from plasma samples from each macaque using a cation exchange-based solid-phase extraction process. Prior to extraction, a known concentration of a mass-adjusted internal standard (IS) will be added to assess recovery and allow for quantitation. […] Compound plasma concentrations will be determined by comparing to and compensating with co-purified IS peak intensity and validated calibrated standard curves.
Toxicokinetic parameters will be calculated using non-compartmental methods as implemented in the Phoenix® WinNonlin® ver. […] Values below the lower limit of quantitation (BLQ) will be assigned a value of zero for the toxicokinetic calculations. […]

C[C@@H](O)[C@H]1C(=O)N2C(C(=O)O)=C(S[C@@H]3CN[C@H](C(=O)N(C)C)C3)[C@H](C)[C@H]12 [Meropenem]
MIC QC range (in parentheses under the MIC) [1]: (2-8) μg/mL | MIC QC range (in parentheses under the MIC) [2]: (0.03-0.12) μg/mL | % R (percent of isolates resistant) [3]: 50.5% | % R (percent of isolates resistant) [4]: 20.2% | % R (percent of isolates resistant) ([4]; listed as meropenem): 20% | % R (percent of isolates resistant) [5]: 1% | % R (percent of isolates resistant) [6]: 65.4% | MIC QC range (in parentheses under the MIC) [7]: (0.03-0.25) μg/mL | MIC50 [8]: 0.03 µg/mL (≈ 0.0782 µM) | MIC90 [8]: 0.12 µg/mL (≈ 0.313 µM) | % R (percent of isolates resistant) ([8]; Enterobacter spp. (n = 102), CLSI breakpoints, colistin EUCAST): 3.9% | MIC ([8]; read-out: Mode (MIC)): 0.03 µg/mL (≈ 0.0782 µM) | MIC QC range (in parentheses under the MIC) [9]: (0.008-0.06) μg/mL | MIC QC range (in parentheses under the MIC) [10]: (0.12-1) μg/mL

C[C@@H](O)[C@H](NC(=O)[C@H](Cc1c[nH]cn1)NC(=O)[C@@H](NC(=O)[C@H](CCCCN)NC(=O)[C@H](CCCCN)NC(=O)[C@@H](NC(=O)[C@H](CCCCN)NC(=O)[C@@H](NC(=O)[C@H](Cc1c[nH]cn1)NC(=O)[C@@H](NC(=O)[C@H](CCCCN)NC(=O)[C@H](CCCCN)NC(=O)[C@@H](NC(=O)[C@H](CCCCN)NC(=O)[C@@H](NC(=O)[C@H](Cc1c[nH]cn1)NC(=O)[C@@H](NC(=O)[C@H](CCCCN)NC(=O)[C@@H](N)CCCCN)[C@@H](C)O)[C@@H](C)O)[C@@H](C)O)[C@@H](C)O)[C@@H](C)O)[C@@H](C)O)[C@@H](C)O)C(=O)N[C@@H](CCCCN)C(=O)O [SEQ ID NO: 13] (H-KKTHTKTKKTHTKTKKTHTK-OH)
Dose Normalized Cmax [11]: 5000 and 7000 and 6000

Source: patent US20240115654A1, “INTRAVENOUS ADMINISTRATION OF ENGINEERED ANTIMICROBIAL AMPHIPHILIC PEPTIDES” (priority 2021, published 2024)
